Test results published in patent US8703106B2, “Chlorine dioxide treatment for biological tissue” (priority 2009, dated 2014).

Assays:
[1] = test system: Pseudomonas aeruginosa (PA) biofilm; experiment: Biofilm kill on ceramic disks, clean system (Example 1); assay type: cell-based; conditions: for Log Reduction in Organism Count: PA
Protocol: (§1) A series of experiments were conducted to estimate the dosage of chlorine dioxide needed to kill bacterial biofilms consisting of Pseudomonas acruginosa (PA), methicillin resistant Staphylococcus aureus (MRSA), or a combination of both.
(§2) Bacterial biofilms were grown for between 7 and 10 days on non-porous ceramic disks in a spinning disk biofilm reactor. The reactors were inoculated with PA, MRSA, or a mixture of MRSA and PA bacteria to produce PA, MRSA, or mixed PA/MRSA biofilms respectively.
(§3) Chlorine dioxide solutions were produced at different nominal concentrations using ASEPTROL S-Tab10 tablets, and the exact concentrations were then measured using a Hach Model 2400 UV/Vis spectrophotometer in accordance with the manufacturer's instructions. Pairs of biofilm-containing disks were immersed for different times in solutions of different chlorine dioxide concentrations, neutralized with dilute sodium thiosul fate solution, and then plated to determine the number of surviving bacteria on each disk. Two untreated disks were also exposed to neutralizing solution and plated to determine the starting bacterial counts. In all tests, the baseline bacterial counts were in the range of 10^7 to 10^7.5 colony-forming units per disk (cfu/disk). A one log reduction refers to reducing the cfu/disk by one order of magnitude, e.g., a reduction from 10^7.1 cfu/disk to 10^6.1 cfu/disk. Accordingly, a substantially complete kill is achieved in the example if the log reduction of bacteria is about 7 to 7.5.
(§4) The results are presented in terms of log reduction of the different bacterial organisms. In the case of mixed PA/MRSA biofilms, results are given as total bacteria.

[2] = test system: methicillin resistant Staphylococcus aureus (MRSA) biofilm; experiment: as above; assay type: cell-based; conditions: for Log Reduction in Organism Count: MRSA
Protocol: as §1, §2, §3, §4

mixed PA/MRSA biofilm = experiment: as above; assay type: cell-based, Pseudomonas aeruginosa and Staphylococcus aureus; conditions: for Log Reduction in Organism Count: MRSA + PA, total bacteria
Protocol: as §1, §2, §3, §4

MRSA biofilm = experiment: Biofilm kill in protein-rich (FBS) environment (Example 3); assay type: cell-based, Staphylococcus aureus; conditions: for Log Reduction in Organism Count: MRSA
Protocol: Chlorine dioxide efficacy against biofilm in protein-rich environment A series of experiments were conducted to determine the effect of FBS on the kill of PA. MRSA and mixture PA/MRSA biofilms. Biofilms were grown as described in Example 1, Disks were immersed in 25 ml of FBS solution at double the target FBS concentration, and to that was added 25 ml of chlorine dioxide solution at double the target chlorine dioxide concentration. After the desired contact time, disks were removed from the treatment solutions, neutralized, and plated as described above.
Dosage is given both as the nominal dose based upon the initial chlorine dioxide concentration, and the actual dosage as estimated from the initial chlorine dioxide concentration and the decay relationships described above.
Columns 3-6 are measured data; columns 7-11 are calculated data. For K2 having a positive sign (such as Samples 20-21), it was assumed that there was insufficient FBS present to cause a material loss of chlorine dioxide. Therefore, for such samples, it was assumed that chlorine dioxide was unchanged over the time of the experiment FIG. 4 is a graph of the results.

[3] = test system: coagulase-negative Staphylococci in wounds; experiment: Pig infected wound model, delivery methods (Example 4); assay type: in vivo
Excerpt: The test animal was a pig (n=1). Pigs are commonly used as models for wound healing in part because pig skin shares many characteristics with human skin. The porcine model is considered to be an excellent tool for the evaluation of candidate agents intended for use in human wounds.
On Day 0, the pig was anesthetized and sixteen […] full-thickness wounds (eight per side) were created using a custom designed 2-cm trephine. Each wound was 2-cm in diameter. An epinephrine solution (1:10,000 dilution) was applied to the wounds on gauze sponges until hemostasis was complete (approximately 10 minutes). Each wound was then infected with a bacterial inoculum.
Three different bacteria, Pseudomonas aeruginosa, Fusobacterium sp., and coagulase-negative Staphylococci (CNS), were cultured and used to prepare inoculums for the wounds. On the morning of surgery, the bacterial cultures were washed with sterile saline and resuspended in saline to a final density of approximately 10^7 CFU/mL. This bacterial suspension was used to inoculate each wound.
Wounds were dressed with sterile Telfa gauze, and the infections allowed to mature to establish a bacterial biofilm condition. Telfa dressings were moistened with saline: the excess saline was removed by squeezing the Telfa dressings. The dressing was then secured in place with Transpore tape (3M, St. Paul, Minn.), As a secondary dressing, a blue absorbent pad was used to cover all of the wounds. The absorbent layer of the blue pad was placed against the skin for the first few days. If wounds looked too dry, the blue pad was changed with the occlusive side against the skin. A layer of a layer of elastic bandage was wrapped over the blue pad to prevent movement of the dressings underneath. All wound dressing were changed on Day 1.
On Day 2, wounds were treated with a chlorine dioxide composition using different delivery methods. In brief, wounds A2-A4 were treated with continuous irrigation. Treatment for wounds B2-B4 and C2-C4 was multiple, substantially contiguous episodes of contact with a substantially non-cytotoxic chlorine dioxide gel composition. Wounds D2-D4 were treated with intermittent irrigation using a manual irrigation device. A1, B1 and D1 were controls and were not treated with chlorine dioxide. C1 was manually treated with a chlorine dioxide solution.
Wounds A2-A4: Each wound was individually covered with an irrigation device, each having an inlet, port to supply a chlorine dioxide solution and an outlet port for egress of the chlorine, dioxide solution. […]
The pump was activated to achieve an initial flow rate of approximately 80-82 ml mm through each of the three irrigation chambers. Chlorine dioxide concentrations were measured at the outlets using a UV spectrophotometer. […]

## [O][Cl+][O-] [ClO2, chlorine dioxide]
[1]; PA biofilm, clean system (Sample 7)
  dosage achieving a kill of about 5 orders of magnitude (5 log): greater than 200 ppm-min
[1]; Sample 6, 0.5 min, 200 ppm ClO2, 100 ppm-min
  Log Reduction in Organism Count: 5.9 log
[1]; Sample 7, 5.0 min, 43 ppm ClO2, […]-min
  Log Reduction in Organism Count: 5.7 log
[1]; Sample 8, 5.0 min, 187 ppm ClO2, 935 ppm-min
  Log Reduction in Organism Count: 7.5 log
[1]; Sample 9, 10.0 min, 37 ppm ClO2, 370 ppm-min
  Log Reduction in Organism Count: 7.5 log
[1]; Sample 10, 50.0 min, 35 ppm ClO2, 1750 ppm-min
  Log Reduction in Organism Count: 7.5 log
[1]; Sample 11, 50.0 min, 166 ppm ClO2, 8300 ppm-min
  Log Reduction in Organism Count: 7.5 log
[2]; MRSA biofilm, clean system (Sample 1)
  dosage achieving a kill of about 5 orders of magnitude (5 log): greater than 200 ppm-min
[2]; Sample 1, 1.0 min, 208 ppm ClO2, 208 ppm-min
  Log Reduction in Organism Count: 5.5 log
[2]; Sample 2, 5.0 min, 204 ppm ClO2, 1020 ppm-min
  Log Reduction in Organism Count: 7.1 log
[2]; Sample 3 (second line), 30.0 min, 40 ppm ClO2, 1200 ppm-min
  Log Reduction in Organism Count: 5.1 log
[2]; Sample 3, 10.0 min, 45 ppm ClO2, 450 ppm-min
  Log Reduction in Organism Count: 5.5 log
[2]; Sample 4, 30.0 min, 175 ppm ClO2, 5250 ppm-min
  Log Reduction in Organism Count: 7.1 log
Mixed PA/MRSA biofilm; Sample 12, 10.0 min, 52 ppm ClO2, 520 ppm-min
  Log Reduction in Organism Count: 5.5 log
Mixed PA/MRSA biofilm; Sample 13, 30.0 min, 52 ppm ClO2, 1560 ppm-min
  Log Reduction in Organism Count: 7.4 log
Mixed PA/MRSA biofilm; Sample 14, 1.0 min, 181 ppm ClO2, 181 ppm-min
  Log Reduction in Organism Count: 5.1 log
Mixed PA/MRSA biofilm; Sample 15, 5.0 min, 160 ppm ClO2, 800 ppm-min
  Log Reduction in Organism Count: 7.4 log
Mixed PA/MRSA biofilm; Sample 16, 30.0 min, 160 ppm ClO2, 4800 ppm-min
  Log Reduction in Organism Count: 7.4 log
Mixed PA/MRSA biofilm; mixed PA/MRSA biofilm, clean system (Sample 12)
  dosage achieving a kill of about 5 orders of magnitude (5 log): greater than 200 ppm-min
MRSA biofilm; MRSA biofilm, with FBS
  corrected dose rate resulting in complete kill: ≥ 2000 ppm-rain
MRSA biofilm; Sample 22, FBS 131 mg/mg ClO2, 15.0 min, initial 191 ppm, nominal 2865, corrected 2236 ppm-min
  Log Reduction in Organism Count: 4.7 log
MRSA biofilm; Sample 23, FBS 131 mg/mg ClO2, 40.0 min, initial 191 ppm, nominal 7640, corrected 5559 ppm-min
  Log Reduction in Organism Count: 4.7 log
MRSA biofilm; Sample 24, FBS 104 mg/mg ClO2, 15.0 min, initial 240 ppm, nominal and corrected 3600 ppm-min
  Log Reduction in Organism Count: 4.7 log
MRSA biofilm; Sample 25, FBS 104 mg/mg ClO2, 30.0 min, initial 240 ppm, nominal and corrected 7200 ppm-min
  Log Reduction in Organism Count: 4.7 log
MRSA biofilm; Sample 26, FBS 104 mg/mg ClO2, 60.0 min, initial 240 ppm, nominal and corrected 14400 ppm-min
  Log Reduction in Organism Count: 4.7 log
[3]; pig wounds, improved irrigation methods and gel formulation
  levels of Staphylococcus aureus: moderately lowered
[3]; pig, Day 2, 400 ppm chlorine dioxide over two hours, versus moist controls
  reduction of coagulase-negative Staph: 1-2 logs
